Measured values from patent US20200197430A1, “Combination Therapy” (NuCana plc, priority 2017, published 2020).

Key:
[1] = PRO-001 (ProGem1) first-in-human phase I study, pharmacokinetics; format: in vivo; details: compared with gemcitabine
Excerpt: PRO-001 (aka ProGem1) was a first-in-human (FIH), phase I, open label, two stage study to investigate the safety, tolerability, clinical efficacy, pharmacokinetics (PK) and pharmacodynamics (PD) of NUC-1031 given in two parallel dosing schedules in subjects with advanced solid malignancies (EudraCT Number: 2011-005232-26). Subjects had the following tumour types at study entry: colorectal cancer (7 subjects), unknown primary (3), ovarian cancer (13), breast cancer (4), pancreatic cancer (9), cholangiocarcinoma (7), uterine or endometrial cancer (3), cervix cancer (2), lung cancer (6), mesothelioma (3) and thymus cancer (1). The study confirmed NUC-1031′s anti-tumour activity in patients with advanced progressive cancers, who have exhausted all standard therapeutic options, many of whom were resistant or refractory to prior nucleoside analogue therapy, including gemcitabine.

[2] = test system: platinum sensitive recurrent ovarian cancer; details: cited from earlier work

Compound	levels of the potentially toxic metabolite dFdU released [1]	response rate [2] [%]	median PFS ([2]; median follow-up of 17 months) [months]
C[C@H](NP(=O)(OC[C@H]1O[C@@H](n2ccc(N)nc2=O)C(F)(F)[C@@H]1O)Oc1ccccc1)C(=O)OCc1ccccc1 (stereo partly drawn) [NUC-1031, 2′-Deoxy-2′,2′-difluoro-D-cytidine-5′-O-[phenyl (benzoxy-L-alaninyl)] phosphate]	lower levels	–	–
N.N.O=C([O-])C1(C(=O)[O-])CCC1.[Pt+2] [carboplatin]	–	30.9	5.8
